A short description of the data set: in vitro dissolution test using a microcentrifuge method. Further details: AUC / AUC90: concentration or dose not given beside the values. Format: physicochemical. As to conditions: for Ziprasidone Concentration: 50 mM MOPS buffer with 150 mM NaCl, pH 7.4, 37° C., supernatant after centrifugation. The protocol:
The dissolution of ziprasidone from the complex mixed with various concentration-enhancing polymers was evaluated in an in vitro dissolution test using a microcentrifuge method. […] The polymer amounts are expressed as wt % based on the weight of the complex. […] Ltd., Tokyo, Japan). […] Tests were performed in duplicate. The tubes were placed in a 37° C. temperature-controlled chamber, and 1.8 mL of 50 mM 4-morpholinepropanesulfonic acid (MOPS) buffer with 150 mM NaCl (pH 7.4) was added. The samples were quickly mixed using a vortex mixer for about 60 seconds. […] The resulting supernatant solution was then sampled and diluted 1:4 (by volume) with methanol and then analyzed by high-performance liquid chromatography (HPLC). A Phenomenex Ultracarb 5 ODS HPLC column was used with a mobile phase of 60 vol. % of 0.02 M KH2PO4 (pH 3.0), and 40 vol. % acetonitrile. UV detection was measured at 254 nm. The contents of the tubes were mixed on the vortex mixer and allowed to stand undisturbed at 37° C. until the next sample was taken. […] The concentrations of drug obtained in these samples are shown below. The dissolution of ziprasidone from these complexes mixed with concentration-enhancing polymer was evaluated using the in vitro dissolution test described in the Examples above.

The term AUC denotes concentration integrated over time.

Structures can show the parent of a compound that is named as a salt.

Where the note is “dissolution AUC 0-90 min, MOPS buffer pH 7.4, 37° C.”, `O=C1Cc2cc(CCN3CCN(c4nsc5ccccc45)CC3)c(Cl)cc2N1` [Example C2, ziprasidone mesylate] had an AUC90 of 100 µg·min/mL. Further, the AUC is 0 µg·min/mL (dissolution AUC up to 0 min, MOPS buffer pH 7.4, 37° C.); 0 µg·min/mL (dissolution AUC up to 4 min, MOPS buffer pH 7.4, 37° C.); 0 µg·min/mL (dissolution AUC up to 10 min, MOPS buffer pH 7.4, 37° C.); 0 µg·min/mL (dissolution AUC up to 30 min, MOPS buffer pH 7.4, 37° C.); 0 µg·min/mL (dissolution AUC up to 60 min, MOPS buffer pH 7.4, 37° C.); 100 µg·min/mL (dissolution AUC up to 90 min, MOPS buffer pH 7.4, 37° C.). In addition, the “Cmax,90” value (maximum ziprasidone concentration within 90 min, MOPS buffer pH 7.4, 37° C.) was 3000 ng/mL. In addition, the “Ziprasidone Concentration” value was found to be 0 µg/mL (time 0 min); 3 µg/mL (time 4 min); 1 µg/mL (time 10 min); 1 µg/mL (time 30 min); 1 µg/mL (time 60 min); 1 µg/mL (time 90 min).

Values taken from patent US7887840B2, “Pharmaceutical compositions comprising drug and concentration-enhancing polymers” (Bend Research, Inc., priority 2001, dated 2011).
